The record followed here is PMC9014857 (ACS Medicinal Chemistry Letters, 2022).

A short description of series [1]: Mouse plasma stability. Conditions: CD-1, mouse.
The test system of series [2] is VEEV INH9813. The experiment in a line: microbe, parasite or virus in culture. Particulars: Venezuelan equine encephalitis virus, Vero 76, read-out: CPE EC50, VEEV and EEEV.
Series [3] has as its system VEEV TC83. Nature of the series: microbe, parasite or virus in culture. Conditions: Venezuelan equine encephalitis virus, read-out: CPE EC50 (VEEV TC83). The series is classed as cell-based.
In series [4] the test system is EEEV V105. Nature of the series: microbe, parasite or virus in culture. In kind it is cell-based, eastern equine encephalitis virus. Particulars: for EC50: Eastern equine encephalitis virus, Vero 76, 48 h, read-out: EEEV V105 CPE EC50.
In series [5] the test system is VEEV INH9813.

One may read the half-life as the time in which the quantity being followed falls by half. A high value points to slow decline. A word on the EC50: it is the concentration needed to bring the measured effect to its halfway point. In series [1], `COc1ccc(N2C(=O)c3cc(C#N)cc(-c4ccc(C)nc4)c3N=C3C2N(C)CCN3C)cc1F` (stereo not shown) [7o] had a half-life of over 4.82 h. Besides, the EC50 in series [2] is 0.16 to 0.24 µM.

As for `COc1ccc(N2C(=O)c3cc([N+](=O)[O-])ccc3N=C3C2N(C)CCN3C)cc1` (stereo not shown) [7a], the EC50 in series [3] turned out to be 0.041 µM.

On to `CN1CCN(C)C2C1=Nc1ccc([N+](=O)[O-])cc1C(=O)N2c1ccccc1` (stereo not shown) [7e], for which the concentration for a half-maximal effect (EC50) in series [4] turned out to be 0.059 ± 0.01 µM.

For the compound `COc1ccc(N2C(=O)c3cc([N+](=O)[O-])ccc3N=C3C2N(C)CCN3C)cc1F` (stereo not shown) [7b], in series [4], the EC50 turned out to be 0.027 ± 0.003 µM.

For `COc1ccc(N2C(=O)c3cc(C#N)ccc3N=C3C2N(C)CCN3C)cc1` (stereo not shown) [7l], in series [4], the “loss in antiviral activity for EEEV” value came to 75 fold. In series [5], the “loss in antiviral activity for VEEV” value was 100 fold.
